Results on 9 compounds are retold here after ChEMBL document CHEMBL4680325, “Design and synthesis of 14 and 15-membered macrocyclic scaffolds exhibiting inhibitory activities of hypoxia-inducible factor 1α” (Bioorg Med Chem, 2021).

Tested on in one test: not listed separately
Briefly: Inhibition of hypoxia-induced HIF1alpha/P300-CBP interaction mediated gene transcriptional activity in human HeLa cells co-transfected with luciferase reporter plasmid containing HRE and pRL-CMV vector incubated for 12 hrs under hypoxic condition by HRE-dependent dual luciferase reporter gene assay. The test is classed as cell-based.
Settings: not given
In general terms: Reporter assays use an easily measured gene product as a stand-in for the process of interest.
Usually IC50 stands for the point on the concentration scale where inhibition reaches its midpoint. Regarding `CC(C)CCN1C/C=C/CCN(CCCc2ccccc2)C(=O)CN[C@@H](C)C(=O)N[C@@H](CC(C)C)C1=O`, half-maximal inhibition (IC50) was put at 13.7 µM.
For the compound `CC(C)CCC(=O)N1C/C=C/CN(CCC(C)C)C(=O)[C@H](CC(C)C)NC(=O)[C@H](C)NC(=O)C1`, the IC50 is over 33 µM.
On the same count and under the same terms, the figure for `CC(C)CCN1CCCCN(CCCc2ccccc2)C(=O)CN[C@@H](C)C(=O)N[C@@H](CC(C)C)C1=O` is 9.96 µM.
Compound `CC(C)CCN1C/C=C/CN(CCCc2ccccc2)C(=O)CN2CCC[C@H]2C(=O)N[C@@H](CC(C)C)C1=O` gave an IC50 of 13.8 µM.
Turning to `CC(C)CCC(=O)N1CCCCN(CCC(C)C)C(=O)[C@H](CC(C)C)NC(=O)[C@H](C)NC(=O)C1`, the IC50 is over 33 µM.
Same read-out and setting: the figure for `CC(C)CCN1CCCCCN(CCCc2ccccc2)C(=O)CN[C@@H](C)C(=O)N[C@@H](CC(C)C)C1=O` is 8.7 µM; for `OCc1ccc(-c2nn(Cc3ccccc3)c3ccccc23)o1` it is 1 µM; for `CC(C)CCN1CCCCN(CCCc2ccccc2)C(=O)CN2CCC[C@H]2C(=O)N[C@@H](CC(C)C)C1=O` it is 9.5 µM.
In turn, `CC(C)CCN1C/C=C/CN(CCCc2ccccc2)C(=O)CN[C@@H](C)C(=O)N[C@@H](CC(C)C)C1=O` came in with an IC50 of 16.3 µM.

For a further test, the system named is HeLa. Description: Antiproliferative activity against human HeLa cells assessed as reduction in cell proliferation measured after 48 hrs by MTT assay.
Settings: not given
The test is classed as functional, cell-based. A general note: Formazan colour is commonly taken as a measure of viable cells.
For the compound `CC(C)CCN1C/C=C/CCN(CCCc2ccccc2)C(=O)CN[C@@H](C)C(=O)N[C@@H](CC(C)C)C1=O`, the IC50 stood at 71.2 µM.
Regarding `CC(C)CCC(=O)N1C/C=C/CN(CCC(C)C)C(=O)[C@H](CC(C)C)NC(=O)[C@H](C)NC(=O)C1`, the 50% inhibitory concentration (IC50) is over 100 µM.
As to `CC(C)CCN1CCCCN(CCCc2ccccc2)C(=O)CN[C@@H](C)C(=O)N[C@@H](CC(C)C)C1=O`, the IC50 was 58.9 µM.
With `CC(C)CCN1C/C=C/CN(CCCc2ccccc2)C(=O)CN2CCC[C@H]2C(=O)N[C@@H](CC(C)C)C1=O`, the IC50 was found to be 54 µM.
Take `CC(C)CCC(=O)N1CCCCN(CCC(C)C)C(=O)[C@H](CC(C)C)NC(=O)[C@H](C)NC(=O)C1`: the IC50 was over 100 µM.
The same measure, in the same setting: the figure for `CC(C)CCN1CCCCCN(CCCc2ccccc2)C(=O)CN[C@@H](C)C(=O)N[C@@H](CC(C)C)C1=O` is 55.5 µM.
As for `CC(C)CCN1CCCCN(CCCc2ccccc2)C(=O)CN2CCC[C@H]2C(=O)N[C@@H](CC(C)C)C1=O`, the IC50 stood at 66.4 µM.
Regarding `CC(C)CCN1C/C=C/CN(CCCc2ccccc2)C(=O)CN[C@@H](C)C(=O)N[C@@H](CC(C)C)C1=O`, the IC50 is 97.1 µM.

A further test relates to HCT-116. Briefly: Antiproliferative activity against human HCT-116 cells assessed as reduction in cell proliferation measured after 2 days by MTT assay. The test is classed as functional, cell-based. The note with it: HCT-116, 48 h.
Consider `CC(C)CCN1C/C=C/CCN(CCCc2ccccc2)C(=O)CN[C@@H](C)C(=O)N[C@@H](CC(C)C)C1=O`, for which the concentration for half-maximal inhibition (IC50) is 33.3 µM.
In the case of `CC(C)CCC(=O)N1C/C=C/CN(CCC(C)C)C(=O)[C@H](CC(C)C)NC(=O)[C@H](C)NC(=O)C1`, the IC50 is over 90 µM.
Same read-out and setting: the figure for `CC(C)CCN1CCCCN(CCCc2ccccc2)C(=O)CN[C@@H](C)C(=O)N[C@@H](CC(C)C)C1=O` is 34.8 µM; for `CC(C)CCN1C/C=C/CN(CCCc2ccccc2)C(=O)CN2CCC[C@H]2C(=O)N[C@@H](CC(C)C)C1=O` it is 17.1 µM.
In the case of `CC(C)CCC(=O)N1CCCCN(CCC(C)C)C(=O)[C@H](CC(C)C)NC(=O)[C@H](C)NC(=O)C1`, the IC50 amounted to 83.8 µM.
With `CC(C)CCN1CCCCCN(CCCc2ccccc2)C(=O)CN[C@@H](C)C(=O)N[C@@H](CC(C)C)C1=O`, the IC50 amounted to 34.3 µM.
Same read-out and setting: the figure for `CC(C)CCN1CCCCN(CCCc2ccccc2)C(=O)CN2CCC[C@H]2C(=O)N[C@@H](CC(C)C)C1=O` is 12.3 µM; for `CC(C)CCN1C/C=C/CN(CCCc2ccccc2)C(=O)CN[C@@H](C)C(=O)N[C@@H](CC(C)C)C1=O` it is 25.1 µM.

A further test has as its system DMS-114. Description: Antiproliferative activity against human DMS-114 cells assessed as reduction in cell proliferation measured after 2 days by MTT assay. The note with it: DMS-114, 48 h. The test is classed as functional, cell-based.
Consider `CC(C)CCN1C/C=C/CCN(CCCc2ccccc2)C(=O)CN[C@@H](C)C(=O)N[C@@H](CC(C)C)C1=O`, for which the IC50 stood at 48.9 µM.
The same measure, in the same setting: the same measure for `CC(C)CCC(=O)N1C/C=C/CN(CCC(C)C)C(=O)[C@H](CC(C)C)NC(=O)[C@H](C)NC(=O)C1`: over 90 µM; for `CC(C)CCN1CCCCN(CCCc2ccccc2)C(=O)CN[C@@H](C)C(=O)N[C@@H](CC(C)C)C1=O`: 45 µM; for `CC(C)CCN1C/C=C/CN(CCCc2ccccc2)C(=O)CN2CCC[C@H]2C(=O)N[C@@H](CC(C)C)C1=O`: 20.9 µM.
As to `CC(C)CCC(=O)N1CCCCN(CCC(C)C)C(=O)[C@H](CC(C)C)NC(=O)[C@H](C)NC(=O)C1`, the IC50 was over 90 µM.
For the compound `CC(C)CCN1CCCCCN(CCCc2ccccc2)C(=O)CN[C@@H](C)C(=O)N[C@@H](CC(C)C)C1=O`, the IC50 was determined as 49 µM.
Still for that read-out and setting: the figure for `CC(C)CCN1CCCCN(CCCc2ccccc2)C(=O)CN2CCC[C@H]2C(=O)N[C@@H](CC(C)C)C1=O` is 17.3 µM.
Consider `CC(C)CCN1C/C=C/CN(CCCc2ccccc2)C(=O)CN[C@@H](C)C(=O)N[C@@H](CC(C)C)C1=O`, for which the IC50 is 32.2 µM.

A further test relates to HeLa. Briefly: Cytotoxicity against human HeLa cells co-transfected with luciferase reporter plasmid containing HRE and pRL-CMV vector incubated for 12 hrs under hypoxic condition by MTT assay.
Settings: not given
It counts as cell-based.
On to `CC(C)CCN1C/C=C/CCN(CCCc2ccccc2)C(=O)CN[C@@H](C)C(=O)N[C@@H](CC(C)C)C1=O`, for which the IC50 was over 50 µM.
Consider `CC(C)CCC(=O)N1C/C=C/CN(CCC(C)C)C(=O)[C@H](CC(C)C)NC(=O)[C@H](C)NC(=O)C1`, for which the IC50 was over 50 µM.
Compound `CC(C)CCN1CCCCN(CCCc2ccccc2)C(=O)CN[C@@H](C)C(=O)N[C@@H](CC(C)C)C1=O` returned an IC50 of over 50 µM.
`CC(C)CCN1C/C=C/CN(CCCc2ccccc2)C(=O)CN2CCC[C@H]2C(=O)N[C@@H](CC(C)C)C1=O` gave a half-inhibitory concentration (IC50) of over 50 µM.
`CC(C)CCC(=O)N1CCCCN(CCC(C)C)C(=O)[C@H](CC(C)C)NC(=O)[C@H](C)NC(=O)C1`: the IC50 is over 50 µM.
In turn, `CC(C)CCN1CCCCCN(CCCc2ccccc2)C(=O)CN[C@@H](C)C(=O)N[C@@H](CC(C)C)C1=O` gave an IC50 of over 50 µM.
In turn, `CC(C)CCN1CCCCN(CCCc2ccccc2)C(=O)CN2CCC[C@H]2C(=O)N[C@@H](CC(C)C)C1=O` displayed an IC50 of over 50 µM.
`CC(C)CCN1C/C=C/CN(CCCc2ccccc2)C(=O)CN[C@@H](C)C(=O)N[C@@H](CC(C)C)C1=O` came in with an IC50 of over 50 µM.
